Measurements taken from patent US20120204273A1, “COMPOSITIONS RELATING TO A PHOSPHOPROTEIN AND METHODS OF USE” (SANFORD-BURNHAM MEDICAL RESEARCH INSTITUTE, priority 2010, published 2012).

Key:
CDP138 = assay: SILAC quantitative phosphoproteomics with PAS antibody immunoprecipitation in 3T3-L1 adipocytes; assay type: cell-based, mouse; conditions: insulin-stimulated adipocytes
Protocol: Preparation of the Triple-Labeling SILAC Media. Arginine- and lysine-free DMEM was divided into three equal portions and 28 mg/liter of the three Arginine isotopes were added separately to make the Arg-0, Arg-6, and Arg-10 media, respectively. In addition, 48.7 mg/liter L-lysine, L-lysine-D4, and L-lysine13C6, 15N2 were supplemented separately to the three lots containing Arg-0, Arg-6, and Arg-10. Finally, glutamine and antibiotics were added to the media together with the full complement of amino acids (Arg-0/Lys-H4, Arg-6/Lys-D4, and Arg-10/Lys-8) and then sterile-filtered (Millipore). The sterile media were separated into two portions for dialyzed serum-containing and serum free media.
Mass Spectrometric Analysis. For SILAC quantitative proteomic study, the mixture of total lysates from the 3 different groups (as shown in FIG. 1A) was used for immunoprecipitation with PAS antibodies. Enriched proteins were resolved by SDS-PAGE. […] Only proteins that had at least 2 ion scores >20 were identified and quantified. MaxQuant was used to verify and quantify the resulting peptide pairs.
Identification of CDP138 as a novel Akt2 substrate using SILAC-based quantitative proteomics. […] The tryptic peptides were subsequently analyzed by tandem mass spectrometry (MS). […]

3T3-L1 adipocytes = assay: Endogenous GLUT4 accumulation in the TIRF zone (fixed adipocytes); assay type: cell-based, mouse; conditions: 100 nM insulin; scrambled siRNA
Protocol: FIG. 2, panels A-C show knockdown of CDP138 in 3T3-L1 adipocytes inhibits insulin-stimulated glucose transport (A) and myc-GLUT4-GFP translocation (B), but not endogenous GLUT4 movement to the periphery detected in TIRF zone (C). (A): Differentiated adipocytes at day 5 were transfected with siRNAs against mouse 5730419I09Rik or the scrambled siRNA (Scr) as described earlier (Jiang et al., 2003) for 60 hrs, then serum starved overnight. Cells were then treated with or without insulin (1 nM and 100 nM) for 30 min for the glucose uptake assay, or 15 min for immunoblotting of CDP138, pAkt, Akt and β-actin. […] Cell surface Myc-GLUT4-GFP was detected with anti-myc monoclonal Ab (9E10) and Alexa Fluor 568-labeled goat anti-mouse IgG in non-permeablized cells. The Myc signal and GFP signal were quantified as previously described (Jiang et al., 2002). […] GLUT4 was detected with a goat anti-GLUT4 Ab and Alexa Fluor 488-conjugated donkey anti-goat Ab in permeabilized cells. […] We also quantified endogenous GLUT4 redistribution to the PM using total internal reflection fluorescence microscopy (TIRFM) with a setting of about 100 nm distance from the coverslip (FIG. 2C, top panel). For this experiment, endogenous GLUT4 was detected by immunofluorescent staining with a goat anti-GLUT4 Ab that recognizes the cytoplasmic C-terminus of GLUT4. […]

insulin
enrichment of CDP138 in PAS immunoprecipitate (CDP138): 2.8 fold
enhancement of GLUT4 signal in the TIRF zone (3T3-L1 adipocytes): about 2.5 fold
